Measured values taken from patent US20220023278A1, “ANTI-AGING METHOD COMPRISING APPLYING JWA GENE” (Simcere Pharmaceutical Co., Ltd., priority 2019, published 2022).

Tests used:
[1] = tested on: naturally aging mice (24 months old); assay: Feeding naturally aging 24-month-old mice with test feed containing 2 g/kg JAC-4; format: in vivo; conditions: test feed 2 g/kg, 10 weeks
Procedure: Feeding 24-month-old mice with the test feed containing 2 g/kg of the compound JAC-4 (equivalent to 200 mg JAC-4/kg body weight).
Mice were housed in the same conditions as Example 12. After feeding for 10 weeks, the mice were anesthetized. The whole blood was collected, allowed to stand for 30 min at room temperature, and centrifuged at 3000 rpm for 15 min. The supernatant, i.e., serum, was collected and analyzed by Hitachi 7100 automatic biochemical analyzer. Liver, spleen and kidney tissues of the mice were isolated on ice, fixed with 4% paraformaldehyde, or frozen at −80° C. The fixed tissues were processed into a paraffin section or frozen section with a thickness of 5 μm, stained with HE to visualize the morphological and pathological changes in the liver, spleen and kidney. The liver section was stained with oil red O for fat deposition and stained with periodic acid-Schiff (PAS) for glycogen. Total protein was extracted from the liver and spleen frozen at −80° C., and cell membrane proteins were extracted from the liver frozen at −80° C. Western blot was performed to detect the expression of JWA protein in liver and spleen tissues, the expression of p-AKT, AKT, p-GSK3β and GSK3β proteins in liver tissues, and the expression of glucose transporter (Glut 2) in cell membrane proteins of liver tissues. A biochemical kit (purchased from Nanjing Jiancheng Bioengineering Institute, Nanjing, China) was used to detect the activities of Superoxide dismutase (SOD), as well as the main rate-limiting enzymes of glucose and lipid metabolism in liver tissues. In all the experiments attention was paid to ethical guidelines for the investigation of experimental pain in conscious animals.

[2] = tested on: JWA gene; assay: JWA reporter gene assay (dual-luciferase) in HBE cells; format: cell-based, human; conditions: 24 hours treatment
Source text: 2012 bp upstream of the JWA transcription start site (referred to “JWA promoter sequence” hereafter) was amplified by RT-PCR according to the human-derived JWA promoter sequence (FIG. 35), and inserted into a pGL3-Neo vector by using KpnI and NheI restriction enzyme sites, thereby yielding a recombinant vector (FIG. 36) containing the JWA promoter sequence. The recombinant vector was transferred into E. coli. (DH5a). Positive clones were sequenced to verify accuracy, thereby obtaining a neomycin-resistant reporter plasmid containing the JWA gene promoter. The plasmid and corresponding strains were stored at −70° C. for use.
Human bronchial epithelial (HBE) cells were cultured at a density of 3000 cells per well in a 384-well plate and allowed to adhere together. […]
After incubation, the 384-well plate was taken out, allowing the reagents and cells to equilibrate to room temperature of 18-22° C. […] The luciferase activity was analyzed by using a Dual-Luciferase Reporter Assay kit (Promega) and measured by a chemiluminescence analyzer (3010 C chemiluminescence analyzer). […]

[3] = tested on: 12-month-old mice; assay: Feeding 12-month-old mice with test feed containing 1 g/kg JAC-4; format: in vivo
Procedure: 12-month-old mice were housed in specific pathogen free (SPF) conditions at an ambient temperature of 22±2° C. and a relative humidity of 40%-60%, in day/night cycles of 12 h/12 h simulated by lighting. Mice were fed with sterile acidified water, common feeds (without compound JAC-4) or test feeds (with compound JAC-4).
In general, the daily feed consumption of each mouse is about 10% of its body weight. Therefore, when the mice consume 1 g/kg of JAC-4 experimental feed, it is equivalent to the daily intake of 100 mg/kg of JAC-4. The mice were weighed every two weeks from the start of feeding and scored on the aging appearance every two weeks from the sixth week. The higher the score, the more obvious the aging appearance. The mice were photographed monthly and changes in appearance were recorded. In all the experiments attention was paid to ethical guidelines for the investigation of experimental pain in conscious animals.

[4] = tested on: JWA protein; assay: Western blot of JWA protein expression in HBE cells; format: cell-based, human; conditions: 24 hours and 48 hours, 1, 10, and 100 μmol/L
Procedure: The HBE cells in the logarithmic growth phase were digested, plated at a density of 5×10^5/cell onto a 60 mm cell culture dish, and incubated in different doses of the compound JAC-4 for 24 hours or 48 hours, respectively. The cells were then treated with 0.18 mL of radio immunoprecipitation assay (RIPA, containing 0.5% PMSF) cell lysate for protein extraction, and centrifuged at 12,000×g for 15 minutes. The supernatant was collected and the protein concentration was measured. The proteins were heated and separated by electrophoresis through 12.5% polyacrylamide gel. 70 μg of the heated proteins was loaded into each well and separated by electrophoresis at 60 V for 30 minutes and 90 V for 1-1.5 hours. The proteins were then transferred from the gel to a PVDF membrane using a mini-genie transfer apparatus. The PVDF membrane was blocked with 5% skim milk, incubated at room temperature for 1-2 hours, and washed with TBST (containing 0.1% Tween 20). The washing step was repeated 3 times for 5 minutes each time. The blocked membrane was incubated overnight with primary antibody at 4° C., and then washed with TBS (containing 0.1% Tween 20). The washing step was repeated 3 times for 5 minutes each time. The blocked membrane was incubated at room temperature for 1-2 hours with secondary antibody, and then washed with TBST (containing 0.1% Tween 20). […]

[5] = HPLC analysis of compound in processed, Co60-sterilized test feed; format: physicochemical; conditions: pelleted feed, Co60 irradiation
Source text: The compound JAC-4 (purity>99%) was mixed with an equal amount of standard mouse feed. Specifically, 1 g of compound JAC-4 was thoroughly mixed with 1 g of basic feed materials; 2 g of the mixture was thoroughly mixed with 2 g of basic feed materials; 4 g of the mixture was thoroughly mixed with 4 g of basic feed materials, and so on, thereby obtaining two test feeds respectively containing 1 g/kg and 2 g/kg of the compound JAC-4. According to the standard operating procedures for feed, the test feeds were processed into pellets, vacuum packaged, and sterilized by a Co60 source irradiation. The feed processing was entrusted to a professional company. To verify that the compound JAC-4 was evenly distributed in the mixed feeds and not damaged in the structure during processing, the sterilized feeds were randomly sampled and fully extracted with organic solvents. The content of the compound JAC-4 was then measured by High Performance Liquid Chromatography and it was confirmed that the compound JAC-4 was not damaged and the content thereof met the requirements (FIGS. 38-40).

[6] = test feed 1 g/kg vs common feed

SMILES: c1ccc(CSc2nnc(C3COc4ccccc4O3)o2)nc1 (centres unmarked) [JAC-4]
- SOD in the liver [1]: increase
- SOD in the serum [1]: increase
- glycogen synthase in the liver [1]: increased
- rate-limiting enzyme related to glucose decomposition in the liver [1]: increased
- serum glucose [1]: significantly reduced
- serum triglycerides [1]: significantly reduced
- age-related inflammatory cell infiltration around the central vein of the liver ([1]; HE staining): significantly reduced
- morphology of liver, kidney and spleen ([1]; HE staining): did not produce observable abnormal changes
- glycogen synthesis in the liver ([1]; PAS staining): increased
- AKT phosphorylation in liver ([1]; Western blot): activated
- GSK3β in liver ([1]; Western blot): inhibited
- Glut 2 expression in liver cell membranes ([1]; Western blot): increased
- expression of JWA protein in liver tissue ([1]; Western blot): increased significantly
- expression of JWA protein in spleen tissue ([1]; Western blot): increased significantly
- activation of JWA gene expression (luciferase reporter) [2]: sharp dose-effect relationship
- body weight ([3]; 22nd week, test feed 1 g/kg (100 mg/kg daily) vs common feed): no statistical difference
- hair loss [3, 6]: significant decrease
- score of aging appearance [3, 6]: significant decrease
- expression level of JWA protein [4]: enhanced
- integrity of compound in feed after processing and sterilization [5]: not damaged
